# Results taken from patent publication US20250034201A1, “PRODRUGS OF GANAXOLONE” (priority 2022, published 2025).
# Read-outs that look alike come from different tables or passages of the source.
# Test: in vitro
# Type: in vitro ADME, human
# Protocol: For several compounds only human liver microsomal stability was tested. […] The microsomal assays were carried out with and without the addition of NADPH at a final concentration of 1 mM. For negative control samples, NADPH reagent was not added. […] Note that compounds undergo only Phase I metabolism in liver microsomes.
# [1] = human liver microsomes 0.5 mg/mL, with NADPH, compound 0.5 μM, 37° C., read-out: Human Liver Microsomal Stability t1/2
# [2] = human liver microsomes 0.5 mg/mL, with NADPH, compound 0.5 μM, read-out: Human Liver Microsomal Stability CLint (uL/min/mg liver) (converted)
# [3] = human liver microsomes, no NADPH, compound 0.5 μM
Structure (SMILES),Comments: production of GNX (ganaxolone) in human liver microsomes (human liver microsomes),half-life [1] [min],microsomal CLint [2] [µL/min/mg],"Human Liver Microsomal Stability no NADPH, % remain 1 h [3] [%]","half-life (human, microsomes) [min]","microsomal CLint (human, microsomes) [µL/min/mg]","Human Liver Microsomal Stability no NADPH, % remain 1 h (human, microsomes) [%]"
COC(=O)[C@@H](NCC(=O)O[C@]1(C)CC[C@@]2(C)[C@@H](CC[C@@H]3[C@@H]2CC[C@]2(C)[C@@H](C(C)=O)CC[C@@H]32)C1)C(C)C [Compound 108],GNX not produced in human,12.2,114,98,,,
COC(=O)CNCC(=O)O[C@]1(C)CC[C@@]2(C)[C@@H](CC[C@@H]3[C@@H]2CC[C@]2(C)[C@@H](C(C)=O)CC[C@@H]32)C1 [Compound 110],In human GNX not produced,4.15,344,1.5,,,
CC(=O)[C@H]1CC[C@H]2[C@@H]3CC[C@H]4C[C@](C)(OC(=O)CNC(=O)CN5CCOCC5)CC[C@]4(C)[C@H]3CC[C@]12C [Compound 112],In human no GNX produced,46.7,29.6,98.6,,,
CNCC(=O)O[C@]1(C)CC[C@@]2(C)[C@@H](CC[C@@H]3[C@@H]2CC[C@]2(C)[C@@H](C(C)=O)CC[C@@H]32)C1 [Compound 114],,277,5,99.5,,,
CC(=O)[C@H]1CC[C@H]2[C@@H]3CC[C@H]4C[C@](C)(OC(=O)CN(C)C(=O)CN5CCOCC5)CC[C@]4(C)[C@H]3CC[C@]12C [Compound 115],In human no GNX produced,13.8,100,99,,,
CC(=O)[C@H]1CC[C@H]2[C@@H]3CC[C@H]4C[C@](C)(OC(=O)CNC(=O)CNC(=O)[C@@H](N)C(C)C)CC[C@]4(C)[C@H]3CC[C@]12C [Compound 122],In human no GNX produced,345,4.02,99,,,
CC(=O)[C@H]1CC[C@H]2[C@@H]3CC[C@H]4C[C@](C)(OC(=O)CNCC(=O)O)CC[C@]4(C)[C@H]3CC[C@]12C [Compound 124],In human small amount of GNX produced,532,2.61,99,,,
COC(=O)C(C)(C)NCC(=O)O[C@]1(C)CC[C@@]2(C)[C@@H](CC[C@@H]3[C@@H]2CC[C@]2(C)[C@@H](C(C)=O)CC[C@@H]32)C1 [Compound 125],,3.9,354,1,,,
CC(=O)[C@H]1CC[C@H]2[C@@H]3CC[C@H]4C[C@](C)(OC(=O)CN5CCC[C@H]5C(=O)OCc5ccccc5)CC[C@]4(C)[C@H]3CC[C@]12C [Compound 128],In human no GNX produced,9,153,20,,,
CC(=O)[C@H]1CC[C@H]2[C@@H]3CC[C@H]4C[C@](C)(OC(=O)CN[C@@H](C)C(=O)O)CC[C@]4(C)[C@H]3CC[C@]12C [Compound 131],In human no GNX produced,207,6.7,82,,,
CC(=O)[C@H]1CC[C@H]2[C@@H]3CC[C@H]4C[C@](C)(OC(=O)CNC(C)(C)CO)CC[C@]4(C)[C@H]3CC[C@]12C [Compound 132],,,,,11.7,118,1
CC(=O)[C@H]1CC[C@H]2[C@@H]3CC[C@H]4C[C@](C)(OC(=O)CNC(C)(C)COC(=O)C(C)C)CC[C@]4(C)[C@H]3CC[C@]12C [Compound 135],,,,,3.6,385,1.3
CC(=O)[C@H]1CC[C@H]2[C@@H]3CC[C@H]4C[C@](C)(OC(=O)CNC(C)(C)COC(=O)CN5CCOCC5)CC[C@]4(C)[C@H]3CC[C@]12C [Compound 136],,3,457,0.5,,,
CC(=O)[C@H]1CC[C@H]2[C@@H]3CC[C@H]4C[C@](C)(OC(=O)CN5CCC[C@H]5C(=O)O)CC[C@]4(C)[C@H]3CC[C@]12C [Compound 137],In human no GNX produced,908,1.52,95,,,
CC(=O)[C@H]1CC[C@H]2[C@@H]3CC[C@H]4C[C@](C)(OC(=O)CNCC(C)(C)N)CC[C@]4(C)[C@H]3CC[C@]12C [Compound 138],In human small amount of GNX produced,33.2,41.8,95.3,,,
CC(=O)[C@H]1CC[C@H]2[C@@H]3CC[C@H]4C[C@](C)(OC(=O)CNCC(C)(C)O)CC[C@]4(C)[C@H]3CC[C@]12C [Compound 140],,39.1,35.5,99,,,
CC(=O)[C@H]1CC[C@H]2[C@@H]3CC[C@H]4C[C@](C)(OC(=O)CNC(=O)C(C)(C)O)CC[C@]4(C)[C@H]3CC[C@]12C [Compound 141],In human no GNX produced,,,,38.3,36.2,99.7
CC(=O)[C@H]1CC[C@H]2[C@@H]3CC[C@H]4C[C@](C)(OC(=O)CN(CCO)CCO)CC[C@]4(C)[C@H]3CC[C@]12C [Compound 142],,,,,32.3,42.9,99
CC(=O)[C@H]1CC[C@H]2[C@@H]3CC[C@H]4C[C@](C)(OC(=O)COC(=O)CN(C)C)CC[C@]4(C)[C@H]3CC[C@]12C [Compound 202],,2.62,529,1.85,,,
CCOCCC(=O)OCC(=O)O[C@]1(C)CC[C@@]2(C)[C@@H](CC[C@@H]3[C@@H]2CC[C@]2(C)[C@@H](C(C)=O)CC[C@@H]32)C1 [Compound 203],,2.24,618,0.79,,,
COCCOCC(=O)OCC(=O)O[C@]1(C)CC[C@@]2(C)[C@@H](CC[C@@H]3[C@@H]2CC[C@]2(C)[C@@H](C(C)=O)CC[C@@H]32)C1 [Compound 204],,4.12,337,10.5,,,
COCCOCCOCC(=O)OCC(=O)O[C@]1(C)CC[C@@]2(C)[C@@H](CC[C@@H]3[C@@H]2CC[C@]2(C)[C@@H](C(C)=O)CC[C@@H]32)C1 [Compound 205],,3.58,387,5.7,,,
CC(=O)[C@H]1CC[C@H]2[C@@H]3CC[C@H]4C[C@](C)(OC(=O)COC(=O)[C@H](C)N5CCOCC5)CC[C@]4(C)[C@H]3CC[C@]12C [Compound 211],,10.5,132,27,,,
CC(=O)[C@H]1CC[C@H]2[C@@H]3CC[C@H]4C[C@](C)(OC(=O)COC(=O)[C@@H](C)N5CCOCC5)CC[C@]4(C)[C@H]3CC[C@]12C [Compound 212],In human small amount of GNX produced,,,,14.3,96.9,99
CC(=O)[C@H]1CC[C@H]2[C@@H]3CC[C@H]4C[C@](C)(OC(=O)COC(=O)C(C)(C)N5CCOCC5)CC[C@]4(C)[C@H]3CC[C@]12C [Compound 213],In human small amount of GNX produced,27.3,50.7,98,,,
CC(=O)[C@H]1CC[C@H]2[C@@H]3CC[C@H]4C[C@](C)(OC(=O)COC(=O)CNC(=O)[C@@H](N)C(C)C)CC[C@]4(C)[C@H]3CC[C@]12C [Compound 214],,161,8.6,79.5,,,
CC(=O)[C@H]1CC[C@H]2[C@@H]3CC[C@H]4C[C@](C)(OC(=O)COC(=O)[C@H](CC(C)C)NC(=O)[C@@H](N)CC(C)C)CC[C@]4(C)[C@H]3CC[C@]12C [Compound 215],,257,5.39,88,,,
CC(=O)[C@H]1CC[C@H]2[C@@H]3CC[C@H]4C[C@](C)(OC(=O)COC(=O)CNC(=O)[C@H](C)N)CC[C@]4(C)[C@H]3CC[C@]12C [Compound 216],,192,7.22,80,,,
CC(=O)[C@H]1CC[C@H]2[C@@H]3CC[C@H]4C[C@](C)(CC(=O)COC(=O)NCCN(C)C)CC[C@]4(C)[C@H]3CC[C@]12C [Compound 217],,316,4.39,99.7,,,
